The test addresses mu opioid receptor (Rattus norvegicus, UniProt P33535). In words: competitive radio receptor binding assay, [3H]DAMGO, rat brain membranes. The conditions noted are these: 1 mg/ml (14.7 mM) imidazole.

Entries after “also recorded” stand apart in the source; their conditions may differ.

mu opioid receptor, sequence (P33535 whole entry): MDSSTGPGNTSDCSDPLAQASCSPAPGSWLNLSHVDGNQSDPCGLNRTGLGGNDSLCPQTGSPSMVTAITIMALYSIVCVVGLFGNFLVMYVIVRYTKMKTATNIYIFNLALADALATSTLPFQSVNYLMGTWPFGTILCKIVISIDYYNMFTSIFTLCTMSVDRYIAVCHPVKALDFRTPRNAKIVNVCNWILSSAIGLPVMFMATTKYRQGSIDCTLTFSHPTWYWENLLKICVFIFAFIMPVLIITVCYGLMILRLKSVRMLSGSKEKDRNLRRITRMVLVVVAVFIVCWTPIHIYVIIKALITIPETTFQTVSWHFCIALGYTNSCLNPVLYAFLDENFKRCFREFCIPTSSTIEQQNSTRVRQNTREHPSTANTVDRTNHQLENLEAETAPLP

As for `c1c[nH]cn1` [imidazole], the “effect on binding of 3H-DAMGO to the mu opioid receptor” value is “negligible inhibition; also recorded: No significant effect”.
